Laboratory results reported in patent US8278452B2, “Heterocyclic compounds and compositions as c-kit and PDGFR kinase inhibitors” (IRM LLC, priority 2008, dated 2012).

Columns and labels:
[1] = system: Mo7e cells which endogenously express c-kit; assay: Mo7e assay: inhibition of SCF dependent proliferation (MTT); type: cell-based
Outline: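 Mo7e cells stimulated with human recombinant SCF and exposed to two-fold serial compound dilutions from a top concentration of 10 μM. After 48 h at 37 °C, viability measured by MTT colorimetric assay; IC50 derived.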

Human TG/HA-VSMC cells = assay: Human TG/HA-VSMC proliferation assay (PDGF-BB, CellTiter-Glo); type: cell-based; details: Biological data table, PDGF-BB stimulated
Method: Human TG/HA-VSMC Proliferation Assay
Human TG/HA-VSMC cells (ATCC) were resuspended in DMEM supplemented with 1% FBS and 30 ng/mL recombinant human PDGF-BB at 60,000 cells/mL. The cells were aliquoted into 384 well plates at 50 μL/well and incubated for 4 hours at 37° C. in a humidified incubator in the presence of 5% carbon dioxide. 0.5 μL of test compound diluted in DMSO was added to each well. The plates were returned to the incubator for a further 68 hours. 25 μL of CellTiter-Glo (Promega) was added to each well and the plates were incubated on the bench for 15 minutes. Luminescence was then read using a CLIPR CCD camera (Molecular Devices).

[2] = Mo7e, Biological data table (selectivity c-kit over PDGFR)
[3] = Table 1, SCF stimulated Mo7e cells, 48 hours, MTT

SMILES	IC50 [1, 2] [nM]	IC50 [1, 3] [nM]	IC50 (Human TG/HA-VSMC cells) [nM]
Cc1cc2c(cn1)cc(-c1cc(Nc3noc(C4CC4)n3)ccc1C)c(=O)n2C [Compound A3, 3-(5-(5-cyclopropyl-1,2,4-oxadiazol-3-ylamino)-2-methylphenyl)-1,7-dimethyl-1,6-naphthyridin-2(1H)-one]	16	16	506
COc1ccc(-c2nc(Nc3ccc(C)c(-c4cc5cnc(C)cc5n(C)c4=O)c3)no2)cc1 [Compound A14, 3-(5-{[5-(4-methoxyphenyl)-1,2,4-oxadiazol-3-yl]amino}-2-methylphenyl)-1,7-dimethyl-1,2-dihydro-1,6-naphthyridin-2-one]	14	14	1820
Cc1ccc(-c2nnc(Nc3ccc(C)c(-c4cc5cnc(C)cc5n(C)c4=O)c3)o2)cc1 [Compound B1, 1,7-dimethyl-3-(2-methyl-5-{[5-(4-methylphenyl)-1,3,4-oxadiazol-2-yl]amino}phenyl)-1,2-dihydro-1,6-naphthyridin-2-one]	76	76	2260
Cc1cc2c(cn1)cc(-c1cc(Nc3nnc(-c4ccccc4)[nH]3)ccc1C)c(=O)n2C [Compound C6, 1,7-dimethyl-3-(2-methyl-5-(5-phenyl-4H-1,2,4-triazol-3-ylamino)phenyl)-1,6-naphthyridin-2(1H)-one]	335	335	3390
Cc1cc2c(cn1)cc(-c1cc(Nc3nnc(C4CCC4)[nH]3)ccc1C)c(=O)n2C [Compound C8, 3-{5-[(5-cyclobutyl-4H-1,2,4-triazol-3-yl)amino]-2-methylphenyl}-1,7-dimethyl-1,2-dihydro-1,6-naphthyridin-2-one]		435	
Cc1cc2c(cn1)cc(-c1cc(Nc3cc(-c4ccccc4)on3)ccc1C)c(=O)n2C [Compound D1, 1,7-dimethyl-3-(2-methyl-5-(5-phenylisoxazol-3-ylamino)phenyl)-1,6-naphthyridin-2(1H)-one]		68	
Cc1cc2c(cn1)cc(-c1cc(Nc3cc(-c4ccc(OC(F)(F)F)cc4)on3)ccc1C)c(=O)n2C [Compound D2]		428	
Cc1cc2c(cn1)cc(-c1cc(Nc3cc(-c4ccccn4)on3)ccc1C)c(=O)n2C [Compound D3]		158	
Cc1cc2c(cn1)cc(-c1cc(Nc3cc(C4CC4)on3)ccc1C)c(=O)n2C [Compound D4, 3-(5-(5-cyclopropylisoxazol-3-ylamino)-2-methylphenyl)-1,7-dimethyl-1,6-naphthyridin-2(1H)-one]		56	
Cc1cc2c(cn1)cc(-c1cc(Nc3cc(C4CCCO4)on3)ccc1C)c(=O)n2C (stereo not drawn) [Compound D5]		197	
Cc1cc2c(cn1)cc(-c1cc(Nc3cc(-c4ccc(Br)cn4)on3)ccc1C)c(=O)n2C [Compound D6]		229	
Cc1cc2c(cn1)cc(-c1cc(Nc3cc(-c4ccc(Cl)cc4Cl)on3)ccc1C)c(=O)n2C [Compound D7]		401	
Cc1cc2c(cn1)cc(-c1cc(Nc3cc(-c4ccc(F)cc4Cl)on3)ccc1C)c(=O)n2C [Compound D8]		361	
Cc1cc2c(cn1)cc(-c1cc(Nc3cc(-c4nccs4)on3)ccc1C)c(=O)n2C [Compound D9, 1,7-dimethyl-3-(2-methyl-5-(5-(thiazol-2-yl)isoxazol-3-ylamino)phenyl)-1,6-naphthyridin-2(1H)-one]	141	141	1070
Cc1cc2c(cn1)cc(-c1cc(Nc3noc(-c4ccccc4)c3C)ccc1C)c(=O)n2C [Compound D10]		339	
Cc1cc2c(cn1)cc(-c1cc(Nc3cc(-c4ccc(F)cc4)on3)ccc1C)c(=O)n2C [Compound D11]		82	
Cc1cc2c(cn1)cc(-c1cc(Nc3cc(-c4ccc(Cl)nc4)on3)ccc1C)c(=O)n2C [Compound D12]		198	
CC(=NO)c1cc(Nc2ccc(C)c(-c3cc4cnc(C)cc4n(C)c3=O)c2)no1 [Compound D13]		476	
Cc1cc2c(cn1)cc(-c1cc(Nc3cc(C(C)C)on3)ccc1C)c(=O)n2C [Compound D14]		144	
Cc1cc2c(cn1)cc(-c1cc(Nc3nc(-c4ccccc4)no3)ccc1C)c(=O)n2C [Compound E1, 1,7-dimethyl-3-{2-methyl-5-[(3-phenyl-1,2,4-oxadiazol-5-yl)amino]phenyl}-1,2-dihydro-1,6-naphthyridin-2-one]		423	
Cc1cc2c(cn1)cc(-c1cc(Nc3nc(-c4ccccn4)no3)ccc1C)c(=O)n2C [Compound E2, 1,7-dimethyl-3-(2-methyl-5-(3-(pyridin-2-yl)-1,2,4-oxadiazol-5-ylamino)phenyl)-1,6-naphthyridin-2(1H)-one]	256	256	2360
Cc1cc2c(cn1)cc(-c1cc(Nc3nc(C(C)C)no3)ccc1C)c(=O)n2C [Compound E3, 3-(5-(3-isopropyl-1,2,4-oxadiazol-5-ylamino)-2-methylphenyl)-1,7-dimethyl-1,6-naphthyridin-2(1H)-one]		181	
Cc1cc2c(cn1)cc(-c1cc(Nc3cc(-c4nccs4)no3)ccc1C)c(=O)n2C [Compound F1, 1,7-dimethyl-3-(2-methyl-5-(3-(thiazol-2-yl)isoxazol-5-ylamino)phenyl)-1,6-naphthyridin-2(1H)-one]	111	111	2140
Cc1cc2c(cn1)cc(-c1cc(Nc3nsc(-c4ccccc4)n3)ccc1C)c(=O)n2C [Compound G1, 1,7-dimethyl-3-(2-methyl-5-(5-phenyl-1,2,4-thiadiazol-3-ylamino)phenyl)-1,6-naphthyridin-2(1H)-one]		733	
Cc1cc2c(cn1)cc(-c1cc(Nc3nnc(-c4ccccc4)s3)ccc1C)c(=O)n2C [Compound H1, 1,7-dimethyl-3-(2-methyl-5-(5-phenyl-1,3,4-thiadiazol-2-ylamino)phenyl)-1,6-naphthyridin-2(1H)-one]		552	
